Measurements reported in US20250262298A1, “STING MODULATOR COMPOUNDS WITH SULFAMATE LINKAGES, AND METHODS OF MAKING AND USING” (TAKEDA PHARMACEUTICAL COMPANY LIMITED, priority 2018, published 2025).

Columns and labels:
Human STING = Human STING (Homo sapiens (Human), UniProt Q86WV6, H232R); experiment: Human STING TR-FRET assay; format: binding; conditions: human STING residues 140-379 (H232R), 100 nM; fluorescein labeled ligand 100 nM; 60 minutes at rt
Procedure: Human STING (accession number GB:BC047779) DNA encoding residues 140-379 (H232R) was cloned into pET28 as N-terminal HIS and C-terminal Avi tagged fusion protein, and a rTEV cleavage site between HIS tag and STING. The sequence was verified before recombinant protein expression using E. coli expression system.
For expression, STING expression vector was transformed into BL21(DE3) cells. The expression was induced by adding IPTG and expressing in 16° C. for 20 hours.
For purification, STING was purified by Nickel affinity resin (Thermo Scientific #25215), followed by TEV enzyme cleavage and Superdex 200 column (GE Healthcare #28-9893-35) purification. For site directed in vitro biotinylation, purified Avi-tagged STING protein was incubated with Biotin (SUPELCO #47868), ATP (SIGMA #A-7699) and BirA enzyme, followed by further purification through a Superdex 200 column (GE Healthcare #28-9893-35). Biotinylation was confirmed by Mass Spectrometry analysis.
40 nL of test compounds in DMSO were added to wells in a white, 384 well microtitre plate (Greiner 784075). 2 uL STING assay buffer (PBS and 0.01% BSA) containing fluorescein labeled ligand (c[G(2′,5′)p-2′-Fluo-AHC-A(3′,5′)p]-Biolog C 195, 100 nM final) and Tb labeled Streptavidin (Streptavidin-Tb cryptate-CisBio 610SATLB) were added. Then 2 uL STING assay buffer containing STING protein (100 nM final) was added and the mixture was incubated at rt for 60 minutes. The plates were then read on a BMG PheraStar Plus reader (LanthaScreen module).
(§1) For the assay method described above, test compound percent inhibition, at various concentrations, was calculated relative to untreated and DMSO only treated samples. Compound concentration versus percent inhibition curves were fitted to generate IC50 values. One skilled in the art will appreciate that the values generated either as percentage inhibition at a single concentration or IC50 values are subject to experimental variation.

[1] = test system: THP1-Dual cells (Lucia luciferase under ISG54 promoter); experiment: THP-1 Dual Lucia reporter gene assay; format: cell-based, human; conditions: Homo sapiens, THP1-Dual, 20 h, luminescence signal induction, 20 hours at 37° C.
Procedure: THP1-Dual™ cells (InvivoGen #thpd-nfis) were derived from the human THP-1 monocyte cell line by stable integration of the Lucia luciferase gene, a secreted luciferase reporter gene, under the control of an ISG54 (interferon-stimulated gene) minimal promoter in conjunction with five interferon (IFN)-stimulated response elements. On the day of experiment, the cells were plated to a black, 384-well plate (Corning 356697) at 7500 cells/25 μl per well density in growth media (RPMI 1640, 2 mM L-glutamine, 25 mM HEPES, 10% heat-inactivated fetal bovine serum, 100 μg/mL Normocin™, 50 U/mL-50 μg/mL Pen-Strep, 10 μg/mL of blasticidin, and 100 μg/mL of Zeocin). The cell plates were dosed with 62.5 nL of the testing compounds, and then incubated at 37° C. for 20 hours. At the end of the incubation, 15 μL/well of the QUANTI-Luc™ (InvivoGen #rep-qlc1) were added, and luminescence was measured immediately using the LeadSeeker.
as §1, with “luminescence signal induction,” for “inhibition,”, “signal induction” for “inhibition”, “EC50” for “IC50”, “generated” for “generated either”, “EC50” for “percentage inhibition at a single concentration or IC50”

Chain of Human STING (Q86WV6 140-379 H232R): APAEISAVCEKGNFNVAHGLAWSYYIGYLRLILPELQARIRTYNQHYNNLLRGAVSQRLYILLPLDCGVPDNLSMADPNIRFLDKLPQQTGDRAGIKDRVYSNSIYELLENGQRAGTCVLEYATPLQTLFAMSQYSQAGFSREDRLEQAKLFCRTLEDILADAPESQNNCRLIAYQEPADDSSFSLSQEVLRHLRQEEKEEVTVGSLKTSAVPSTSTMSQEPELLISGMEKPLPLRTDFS

Nc1nc2c(ncn2[C@@H]2O[C@@H]3COP(=O)(S)O[C@H]4C[C@H](n5cnc6c(N)ncnc65)O[C@@H]4CNS(=O)(=O)O[C@@H]2C3)c(=O)[nH]1 (single isomer, unassigned) [Compound I-3]
IC50 (Human STING): < 1000 nM
EC50 [1]: < 1000 nM
